Results on 25 compounds are retold here after ChEMBL document CHEMBL6071155, “Discovery of selective Orai channel blockers bearing an indazole or a pyrazole scaffold” (Eur J Med Chem, 2024).

Calls of active or inactive are those of the source. The calls are words filed in the database; no cut-off is given here.

As usually defined, the inhibition is how much of the control response was suppressed. As usually defined, the IC50 is the point on the concentration scale where inhibition reaches its midpoint.

One data set has as its system Jurkat T. Kind of data set: Inhibition of NFAT (unknown origin) activation transfected in human Jurkat T cells expressing firefly luciferase gene at 10 uM preincubated with compound for 30 mins followed by PMA/ionomysin addition and measured after 18 hrs by luminometer relative to control. The format is cell-based. To be noted: time 18.5 hrs.
In data set [1] the test system is Jurkat. Kind of data set: Cytotoxicity against human Jurkat T cells assessed as decrease in cell viability at 30 uM incubated for 48 hrs by trypan blue exclusion method. The format is toxicity, cell-based.
The subject of data set [2] is Calcium release-activated calcium channel protein 1 (Homo sapiens), Q96D31 [G98S]. Description: Reversible inhibition of myc-tagged human Orai-1 G98S mutant expressed in HEK293 cells assessed as reduction in inward current at 10 uM measured upto 6 mins by patch clamp electrophysiology. The format is cell-based. (Patch clamp records ionic current or voltage across a cell membrane.)

A short description of data set [3]: Inhibition of Store-operated calcium entry (SOCE) in phytohemagglutinin-stimulated human Jurkat T cells at 30 uM in presence of Ca2+ by fura-2 dye based calcium imaging analysis relative to control. The format is functional.
The target in data set [4] is Transient receptor potential cation channel subfamily M member 4 (Homo sapiens) (UniProt Q8TD43). Kind of data set: Activation of GFP-tagged human TRPM4 transfected in HEK293 cells at 30 uM by patch clamp electrophysiology. The format is cell-based.
Chain of Transient receptor potential cation channel subfamily M member 4 (Homo sapiens) (Q8TD43 whole entry): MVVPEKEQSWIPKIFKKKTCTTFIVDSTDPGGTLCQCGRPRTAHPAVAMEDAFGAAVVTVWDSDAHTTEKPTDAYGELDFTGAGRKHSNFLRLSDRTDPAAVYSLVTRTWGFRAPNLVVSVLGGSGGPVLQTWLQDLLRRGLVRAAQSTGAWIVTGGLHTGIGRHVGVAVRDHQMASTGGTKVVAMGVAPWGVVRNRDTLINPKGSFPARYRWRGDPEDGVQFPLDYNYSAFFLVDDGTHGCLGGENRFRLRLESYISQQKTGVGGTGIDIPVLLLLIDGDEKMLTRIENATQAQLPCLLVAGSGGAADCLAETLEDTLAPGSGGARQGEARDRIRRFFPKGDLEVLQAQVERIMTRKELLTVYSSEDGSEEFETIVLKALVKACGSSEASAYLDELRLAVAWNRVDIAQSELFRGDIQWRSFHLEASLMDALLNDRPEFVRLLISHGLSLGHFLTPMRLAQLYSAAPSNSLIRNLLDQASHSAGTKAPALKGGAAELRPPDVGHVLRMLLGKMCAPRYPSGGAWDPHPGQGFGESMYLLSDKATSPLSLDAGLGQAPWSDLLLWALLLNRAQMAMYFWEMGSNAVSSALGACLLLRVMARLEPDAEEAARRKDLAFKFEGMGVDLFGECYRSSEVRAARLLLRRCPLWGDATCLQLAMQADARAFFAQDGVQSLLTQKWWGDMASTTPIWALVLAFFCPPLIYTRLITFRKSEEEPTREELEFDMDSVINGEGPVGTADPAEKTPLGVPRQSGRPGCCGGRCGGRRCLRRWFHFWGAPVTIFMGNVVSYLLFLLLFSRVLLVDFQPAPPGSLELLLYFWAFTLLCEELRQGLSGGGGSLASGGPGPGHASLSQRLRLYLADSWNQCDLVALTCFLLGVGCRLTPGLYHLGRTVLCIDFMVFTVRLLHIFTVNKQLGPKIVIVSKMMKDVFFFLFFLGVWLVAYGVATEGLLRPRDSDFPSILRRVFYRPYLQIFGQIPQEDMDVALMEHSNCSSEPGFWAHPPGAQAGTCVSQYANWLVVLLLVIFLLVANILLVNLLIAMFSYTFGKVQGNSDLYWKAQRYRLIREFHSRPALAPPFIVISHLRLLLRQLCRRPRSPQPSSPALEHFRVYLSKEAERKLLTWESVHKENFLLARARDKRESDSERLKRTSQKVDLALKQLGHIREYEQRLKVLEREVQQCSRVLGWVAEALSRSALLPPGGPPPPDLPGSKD
The target in data set [5] is Calcium release-activated calcium channel protein 1 (Homo sapiens, UniProt Q96D31, G98S). Description: (§1) Inhibition of myc-tagged human orai-1 G98S mutant expressed in HEK293 cells assessed as decrease in inward current by patch clamp electrophysiology technique. It is filed as cell-based.
Chain of Calcium release-activated calcium channel protein 1 (Q96D31 whole entry G98S): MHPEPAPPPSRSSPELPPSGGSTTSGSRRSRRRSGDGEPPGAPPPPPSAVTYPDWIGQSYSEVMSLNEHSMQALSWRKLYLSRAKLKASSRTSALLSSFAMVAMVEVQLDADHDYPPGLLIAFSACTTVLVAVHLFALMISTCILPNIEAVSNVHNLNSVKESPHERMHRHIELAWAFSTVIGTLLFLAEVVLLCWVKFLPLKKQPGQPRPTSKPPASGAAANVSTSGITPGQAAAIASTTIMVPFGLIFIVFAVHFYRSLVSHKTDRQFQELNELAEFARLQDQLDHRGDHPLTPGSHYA
Data set [6] has as its system Calcium release-activated calcium channel protein 1 (Homo sapiens), Q96D31 [G98S]. The data set is described as §1. The format is cell-based. The following applies: dose 1-30 µM.
Data set [7] shares this test system. Description: Inhibition of myc-tagged human orai-1 G98S mutant expressed in HEK293 cells assessed as decrease in inward current at 30 uM by patch clamp electrophysiology technique relative to control. The format is cell-based.
The nature of data set [8]: (§2) Inhibition of Store-operated calcium entry (SOCE) in phytohemagglutinin-stimulated human Jurkat T cells in presence of Ca2+ by fura-2 dye based calcium imaging analysis. The format is functional, cell-based.
The subject of data set [9] is Jurkat. The description is as §2. It is filed as functional, cell-based.
Data set [10] has as its target Transient receptor potential cation channel subfamily M member 7 (Homo sapiens) (UniProt Q96QT4). Description: Activation of TRPM7 in human Jurkat T cells at 30 uM by patch clamp electrophysiology. The format is cell-based.
The subject of data set [11] is Jurkat. Description: Cytotoxicity against human Jurkat T cells assessed as cell killing at 30 uM incubated for 48 hrs by trypan blue exclusion method relative to control. The format is toxicity, cell-based.
Data set [12] concerns the target Transient receptor potential cation channel subfamily M member 4 (Homo sapiens) (UniProt Q8TD43). Description: Activation of GFP-tagged human TRPM4 transfected in HEK293 cells at 10 uM by patch clamp electrophysiology. The format is cell-based. To be noted: filed as opener.

Chain of Calcium release-activated calcium channel protein 1 (Homo sapiens), Q96D31 [G98S] (Q96D31 whole entry G98S): as above
Chain of Transient receptor potential cation channel subfamily M member 7 (Homo sapiens) (Q96QT4 whole entry): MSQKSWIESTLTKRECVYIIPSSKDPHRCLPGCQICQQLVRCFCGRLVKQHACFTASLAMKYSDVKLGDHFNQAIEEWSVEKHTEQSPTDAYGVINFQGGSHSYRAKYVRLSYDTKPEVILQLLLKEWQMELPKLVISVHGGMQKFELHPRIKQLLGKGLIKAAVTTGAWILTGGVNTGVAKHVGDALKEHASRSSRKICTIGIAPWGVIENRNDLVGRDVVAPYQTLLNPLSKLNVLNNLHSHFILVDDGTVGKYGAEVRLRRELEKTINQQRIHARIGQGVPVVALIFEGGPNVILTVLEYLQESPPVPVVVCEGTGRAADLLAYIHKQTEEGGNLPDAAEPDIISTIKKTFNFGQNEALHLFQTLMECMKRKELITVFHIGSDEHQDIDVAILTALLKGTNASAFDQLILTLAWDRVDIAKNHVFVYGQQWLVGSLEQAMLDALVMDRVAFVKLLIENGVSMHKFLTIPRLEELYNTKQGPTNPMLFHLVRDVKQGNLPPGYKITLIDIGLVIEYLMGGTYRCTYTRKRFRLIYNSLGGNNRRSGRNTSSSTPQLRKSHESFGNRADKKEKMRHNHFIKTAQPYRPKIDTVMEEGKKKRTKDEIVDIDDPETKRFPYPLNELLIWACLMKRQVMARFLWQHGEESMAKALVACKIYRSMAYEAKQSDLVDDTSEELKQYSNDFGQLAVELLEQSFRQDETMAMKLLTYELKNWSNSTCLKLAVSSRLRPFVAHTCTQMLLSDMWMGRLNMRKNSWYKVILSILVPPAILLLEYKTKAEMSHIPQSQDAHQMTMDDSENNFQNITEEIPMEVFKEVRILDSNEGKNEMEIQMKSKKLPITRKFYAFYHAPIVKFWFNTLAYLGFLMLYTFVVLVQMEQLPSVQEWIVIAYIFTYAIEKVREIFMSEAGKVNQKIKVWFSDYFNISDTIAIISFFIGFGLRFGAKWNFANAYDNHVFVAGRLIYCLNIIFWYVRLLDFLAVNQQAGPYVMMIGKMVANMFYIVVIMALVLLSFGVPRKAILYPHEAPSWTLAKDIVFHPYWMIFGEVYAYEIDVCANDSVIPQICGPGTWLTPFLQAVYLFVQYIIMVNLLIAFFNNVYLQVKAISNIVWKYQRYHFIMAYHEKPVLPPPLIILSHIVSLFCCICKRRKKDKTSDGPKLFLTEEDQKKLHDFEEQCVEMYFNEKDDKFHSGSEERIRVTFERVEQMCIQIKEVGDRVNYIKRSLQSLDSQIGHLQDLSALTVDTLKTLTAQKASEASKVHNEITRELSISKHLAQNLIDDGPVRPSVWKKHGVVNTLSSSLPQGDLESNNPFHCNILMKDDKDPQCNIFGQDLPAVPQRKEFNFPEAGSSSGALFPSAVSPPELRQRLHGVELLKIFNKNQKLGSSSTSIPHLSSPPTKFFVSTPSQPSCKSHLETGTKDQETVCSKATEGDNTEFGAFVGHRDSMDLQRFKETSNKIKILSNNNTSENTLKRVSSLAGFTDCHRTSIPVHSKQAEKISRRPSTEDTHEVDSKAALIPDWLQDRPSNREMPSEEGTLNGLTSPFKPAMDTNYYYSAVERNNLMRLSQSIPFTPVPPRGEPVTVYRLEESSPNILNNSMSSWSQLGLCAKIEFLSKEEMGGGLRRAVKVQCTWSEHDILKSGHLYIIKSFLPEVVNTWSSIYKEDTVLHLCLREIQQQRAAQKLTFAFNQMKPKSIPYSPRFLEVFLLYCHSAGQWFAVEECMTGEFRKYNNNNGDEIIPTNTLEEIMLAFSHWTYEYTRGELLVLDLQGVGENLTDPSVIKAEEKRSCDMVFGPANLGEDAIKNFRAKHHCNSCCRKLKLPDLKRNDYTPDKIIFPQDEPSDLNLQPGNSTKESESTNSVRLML

Regarding `O=C(Nc1ccncc1F)c1nn(CC2CC2)c2cc(F)ccc12`, the inhibition with Jurkat T was determined as 96.1%. On to `O=C(Nc1ccncc1F)c1nn(CC2CC2)c2c(F)cccc12`, for which, in the data set on Jurkat T, the inhibition was found to be 48.5%. In the case of `O=C(Nc1ccncc1F)c1nn(CC2CC2)c2ccccc12`, in the data set on Jurkat [1], the Activity result was “Non-Toxic”. In addition, in data set [2], the inhibition result is “Active”. Also, in [3], the inhibition at 30 µM was determined as 100%. For the same compound, the outcome in data set [4] and in data set [10] was inactive. Further, the IC50 in data set [5] worked out at 4.9 µM; in data set [8], 10 µM. The inhibition entry in data set [6] was “Dose-Dependent Effect”; in data set [7], 100%; in the data set on Jurkat [9], “Dose-Dependent Effect”; with Jurkat T it was 97.9%.

Take `O=C(Nc1ccncc1F)c1nn(C(=O)C2CC2)c2ccccc12`: the inhibition in the data set with Jurkat T was 76.8%.

As for `Cc1cnccc1NC(=O)c1nn(CC2CCC2)c2ccccc12`, the inhibition in the data set on Jurkat T was found to be 92.4%. For `O=C(Nc1ccncc1F)c1nn(CC2CCC2)c2ccccc12`, the inhibition with Jurkat T is 80.5%. Turning to `O=C(Nc1ccncc1F)c1nn(CC2CC2)c2ccc(Br)cc12`, the inhibition in the data set on Jurkat T was 58.6%.

Take `O=C(Nc1c(F)cccc1F)c1nn(CC2CC2)c2c1CCCC2`: the inhibition in the data set with Jurkat T came out at 53.9%.

Regarding `O=C(Nc1ccncc1F)c1nn(CC2CC2)c2c1CCCC2`, the inhibition with Jurkat T worked out at 87.3%.

For the compound `O=C(Nc1ccncc1F)c1nn(CC2CC2)c2ncccc12`, the inhibition result in data set [2] was “Active”. Besides, the inhibition with Jurkat T is 64.6%. `Cc1nnsc1C(=O)Nc1ccc(-n2nc(C(F)(F)F)cc2C(F)(F)F)cc1`: the Activity in the data set with Jurkat [11] was ~ 80%. The outcome in data set [12] was Active.

On to `Cc1cnccc1NC(=O)c1nn(CC2CC2)c2c1CCCC2`, for which, in the data set on Jurkat T, the inhibition was 88.7%. The same measure, in the same setting: the same measure for `O=C(Nc1c(F)cccc1F)c1ccn(CC2CC2)n1`: “inactive”; for `O=C(Nc1ccncc1F)c1nn(CC2CCCCC2)c2ccccc12`: 88.4%; for `O=C(Nc1ccncc1F)c1nn(CC2CCCC2)c2ccccc12`: 95.4%. Turning to `Cc1cnccc1NC(=O)c1nn(CC2CC2)c2ccccc12`, the inhibition in the data set with Jurkat T worked out at 86.9%. As for `Cc1cnccc1NC(=O)c1nn(CC2CC2)c2c1CCC2`, the inhibition in the data set on Jurkat T was determined as 55.5%. Same read-out and setting: the same measure for `Cc1cnccc1NC(=O)c1ccn(CC2CC2)n1`: 61.3%; for `Cc1ccc2c(c1)c(C(=O)Nc1ccncc1F)nn2CC1CC1`: 81.9%. Regarding `O=C(Nc1ccncc1F)c1nn(CC2CC2)c2c1CCC2`, the inhibition in the data set with Jurkat T is 63.6%. Take `O=C(Nc1ccncc1F)c1nn(CC2CCC2)c2c1CCCC2`: the inhibition in the data set with Jurkat T is 92.8%. For the compound `O=C(Nc1ccncc1F)c1nn(CC2CC2)c2ccc(F)cc12`, in the data set on Jurkat T, the inhibition worked out at 77.3%. On to `O=C(Nc1ccncc1F)c1ccn(CC2CC2)n1`, for which the inhibition in the data set on Jurkat T was 60.2%. On to `O=C(Nc1ccncc1F)c1nn(CC2CC2)c2cc(Cl)ccc12`, for which, in the data set on Jurkat T, the inhibition stood at 51.9%. As for `Cc1cnccc1NC(=O)c1nn(CC2CCC2)c2c1CCCC2`, the inhibition in the data set on Jurkat T was determined as 92.6%.
